# Test system: scalp
# Test: monadic use test for scalp compatibility and mildness
# Set-up: species or system consumers
# Details: in vivo
# Protocol: The above compositions were tested in a monadic use test for scalp compatibility and mildness. Both compositions were used to dye hair of 30 consumers each having shoulder length hair. The composition was mixed with a composition comprising 6% hydrogen peroxide at a weight ratio of 1 to 1 and applied onto hair and processed for 30 min at a temperature of 40° C. and rinsed off. It was observed that both composition colour hair in the same way to the same colour direction. The following observations were made on scalp irritation.
smiles,measurement,value
"O=C(CCc1ccc(O)cc1)Nc1ccccc1C(=O)O [hydroxyphenyl propamidobenzoic acid, Hydroxyphenyl propamidobenzoic acid]",mildness and scalp compatibility of hair dyeing composition (conclusion in words),improved mildness of hair dyeing composition and improved scalp compatibility
